Some test systems named below: K-562 leukemia; UO-31 renal; SF-268 CNS; SK-MEL-28 melanoma; MALME-3M melanoma; A498 renal; HOP-92 NSCLC; ACHN renal; SF-295 CNS; A549 NSCLC; NCI-H226 lung; UACC-257 melanoma; NCI-H522 lung; OVCAR-3 ovarian; NCI-H23 lung; U251 CNS; KM12 colon; HOP-62 NSCLC; MCF7 breast; SR leukemia; HT29 colon; HCT-15 colon; HS 578T breast; T-47D breast; LOX IMVI melanoma; IGROV1 ovarian; RPMI-8226 leukemia; SW-620 colon; CCRF-CEM leukemia; CAKI-1 renal; SF-539 CNS; COLO 205 colon; M14 melanoma; BT-549 breast; OVCAR-4 ovarian; NCI-H460 lung; EKVX NSCLC; MDA-MB-435; SNB-75 CNS; RXF 393 renal; DU-145 prostate; SN12C renal; SNB-19 CNS; SK-MEL-5 melanoma; SK-MEL-2 melanoma; OVCAR-5 ovarian; HCC-2998 colon; MOLT-4 leukemia; PC-3 prostate; TK-10 renal; OVCAR-8 ovarian; MDA-MB-468 breast; HL-60(TB) leukemia; MDA-MB-231 breast; HCT-116 colon; 786-0 renal; SK-OV-3 ovarian; UACC-62 melanoma.

Common to all, as to assay: growth of human tumour cells (NCI), 48 h

Values joined by “and” are separate entries in the source; they are usually repeats but may differ in a detail not shown here. Equal entries are not always repeated.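 Results reflect a 48-hour exposure of cells in 96-well plates to compound at five concentrations. Abbreviation: GI50, concentration required for 50% inhibition of growth. TGI: concentration producing complete growth inhibition.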

With `O=C(c1ccc(Cl)cc1)C1[C@H](c2ccccc2Br)[C@@H](c2ccccc2)NC12C(=O)Nc1ccc(Br)cc12` (stereo partly drawn), the GI50 with K-562 leukemia is 6.65 µM; in the assay on UO-31 renal it was 4.83 µM; with SF-268 CNS, 3.97 µM; in the assay with SK-MEL-28 melanoma, 20.3 µM; in the assay with MALME-3M melanoma, 13.1 µM; in the assay on A498 renal, more than 49 µM. Moreover, the GI50 is 3.28 µM in the assay with HOP-92 NSCLC; 10 µM in the assay with ACHN renal; 12.2 µM in the assay with SF-295 CNS; 4.84 µM with A549 NSCLC; 5.52 µM in the assay with NCI-H226 lung; 10 µM in the assay with UACC-257 melanoma. In addition, the GI50 with NCI-H522 lung is 2.44 µM; in the assay with OVCAR-3 ovarian it was 5.07 µM; in the assay on NCI-H23 lung it was 7.91 µM; with U251 CNS, 8.25 µM; in the assay on KM12 colon, 7.46 µM; in the assay on HOP-62 NSCLC it was 15.6 µM. In addition, the GI50 with MCF7 breast is 2.64 µM; in the assay with SR leukemia it was 3.01 µM; in the assay with HT29 colon, 6.21 µM; in the assay on HCT-15 colon, 7.65 µM; in the assay on HS 578T breast it was 7.13 µM; in the assay with T-47D breast, 3.88 µM. Moreover, the GI50 in the assay on LOX IMVI melanoma was 4.95 µM; with IGROV1 ovarian, 6.71 µM; in the assay on RPMI-8226 leukemia, 8.15 µM; in the assay with SW-620 colon, 9.5 µM; in the assay on CCRF-CEM leukemia, 5.97 µM; in the assay on CAKI-1 renal, 1.88 µM. Besides, the GI50 was more than 49 µM in the assay on SF-539 CNS; 7.1 µM in the assay on COLO 205 colon; 7.81 µM with M14 melanoma; 5.97 µM in the assay on BT-549 breast; 10.1 µM with OVCAR-4 ovarian; 5.94 µM in the assay with NCI-H460 lung. In addition, the GI50 in the assay on EKVX NSCLC is 13.3 µM; with MDA-MB-435, 7.74 µM; in the assay with SNB-75 CNS, 1.31 µM; with RXF 393 renal, 2.2 µM; in the assay on DU-145 prostate, 9.36 µM; in the assay with SN12C renal it was 5.33 µM. Further, the GI50 in the assay on SNB-19 CNS is 23.2 µM; with SK-MEL-5 melanoma it was 10.6 µM; in the assay with SK-MEL-2 melanoma, 7.37 µM; with OVCAR-5 ovarian, 10.2 µM; in the assay with HCC-2998 colon it was 8.14 µM; in the assay on MOLT-4 leukemia, 2.4 µM. The GI50 was 2.53 µM in the assay with PC-3 prostate; 20.4 µM in the assay with TK-10 renal; 11 µM in the assay on OVCAR-8 ovarian; 1.55 µM in the assay with MDA-MB-468 breast; 8.67 µM in the assay with HL-60(TB) leukemia; 5.01 µM in the assay on MDA-MB-231 breast. The GI50 with HCT-116 colon is 2.34 µM; in the assay on 786-0 renal it was 18.4 µM; in the assay on SK-OV-3 ovarian it was 13.6 µM; in the assay on UACC-62 melanoma it was 6.59 µM. The TGI in the assay with K-562 leukemia, with UO-31 renal, with SF-268 CNS, in the assay with SK-MEL-28 melanoma, with MALME-3M melanoma and in the assay with A498 renal was more than 49 µM throughout. The TGI with HOP-92 NSCLC, with ACHN renal, with SF-295 CNS, in the assay on A549 NSCLC, in the assay with NCI-H226 lung and in the assay with UACC-257 melanoma was more than 49 µM throughout. Also, the TGI is 26.2 µM in the assay on NCI-H522 lung; 29.5 µM with OVCAR-3 ovarian; more than 49 µM in the assay on NCI-H23 lung; 31.6 µM in the assay with U251 CNS; 23.4 µM in the assay with KM12 colon; more than 49 µM in the assay with HOP-62 NSCLC. Further, the TGI with MCF7 breast is more than 49 µM; with SR leukemia, 18.7 µM; in the assay with HT29 colon, 17.2 µM; with HCT-15 colon, more than 49 µM; in the assay with HS 578T breast, more than 49 µM; with T-47D breast it was more than 49 µM. Besides, the TGI is 13.5 µM in the assay on LOX IMVI melanoma; more than 49 µM in the assay with IGROV1 ovarian; more than 49 µM in the assay with RPMI-8226 leukemia; more than 49 µM in the assay on SW-620 colon; 26.5 µM with CCRF-CEM leukemia; more than 49 µM in the assay on CAKI-1 renal. Moreover, the TGI is more than 49 µM in the assay with SF-539 CNS; 15.5 µM in the assay with COLO 205 colon; 34.9 µM in the assay on M14 melanoma; more than 49 µM in the assay on BT-549 breast; more than 49 µM in the assay on OVCAR-4 ovarian; 15 µM in the assay on NCI-H460 lung. Moreover, the TGI with EKVX NSCLC is more than 49 µM; in the assay on MDA-MB-435 it was 22.3 µM; in the assay with SNB-75 CNS, more than 49 µM; in the assay on RXF 393 renal, 23.3 µM; in the assay on DU-145 prostate, more than 49 µM; with SN12C renal it was 14 µM. Further, the TGI with SNB-19 CNS is more than 49 µM; in the assay with SK-MEL-5 melanoma it was 38 µM; with SK-MEL-2 melanoma, more than 49 µM; in the assay with OVCAR-5 ovarian it was more than 49 µM; in the assay on HCC-2998 colon, 33.8 µM; with MOLT-4 leukemia, 25.2 µM. For the same compound, the TGI is 33.4 µM with PC-3 prostate; more than 49 µM with TK-10 renal; more than 49 µM in the assay with OVCAR-8 ovarian; 14.2 µM with MDA-MB-468 breast; 32.5 µM with HL-60(TB) leukemia; 23 µM in the assay with MDA-MB-231 breast. The TGI is 11.7 µM in the assay on HCT-116 colon, more than 49 µM with 786-0 renal, more than 49 µM with SK-OV-3 ovarian and more than 49 µM in the assay on UACC-62 melanoma.
On to `COc1cc(C2CC(c3cc(Cl)c(C)cc3O)=NN2c2ccc(S(N)(=O)=O)cc2)cc(OC)c1OC` (stereo not drawn), for which, in the assay on MDA-MB-468 breast, the GI50 is 2.64 µM and the TGI is 9.07 µM.
In the case of H-KIFKKFKTIIKKVWRIFGRF-NH2, in the assay with MDA-MB-468 breast, the GI50 was 1.32 µM and the TGI was determined as 5.94 µM.
For `COC(=O)[C@@H](C)C[C@H](Cc1ccccc1)NC(=O)c1csc([C@@H](C[C@H](C(C)C)N(C)C(=O)[C@@H](NC(=O)CN(C)C)C2CC2)OC(C)=O)n1`, the GI50 in the assay on MDA-MB-468 breast was 0.00658 µM.
For `CCn1c(-c2nonc2N)nc2c(C#CC(C)(C)O)ncc(OCC3CCNCC3)c21`, in the assay with MDA-MB-468 breast, the GI50 is 0.336 µM and the TGI is more than 25 µM.
Take `Nc1ncn(C2OC(CO)C(O)C2O)c(=O)n1` (stereo not drawn): in the assay with MDA-MB-468 breast, the GI50 is 1.21 µM and 0.925 µM; the TGI is 6.45 µM and 8.06 µM.
On to `COc1cc2cc(Oc3ccc(NC(=O)Nc4cc(C(F)(F)F)cc(C(F)(F)F)c4)cc3)c(C)nc2cc1OCCN1CCCCC1`, for which, in the assay with MDA-MB-468 breast, the GI50 is 1.67 µM and the TGI is 3.32 µM.
For `CC(=O)O[C@H]1Cc2c([nH]c3ccccc23)[C@@H](c2ccc(Cl)cc2)N1C(=O)CCNC(C)(C)C` the same measures were 3.18 µM and 7.67 µM.
Turning to `COC(=O)C1=C(C)NC(C)=C(C(=O)OC)C1c1ccccc1[N+](=O)[O-]`, in the assay on MDA-MB-468 breast, the GI50 was 25.3 µM and the TGI is more than 100 µM.
The like results for `CO[C@H]1/C=C/C=C/C=C/C[C@H](OC(=O)[C@@H](C)NC(=O)C2CCCCC2)[C@H](C)[C@@H](O)/C(C)=C\CCC2=CC(=O)C=C(NC(=O)C1)C2=O` were, in that order, 0.142 µM and 0.74 µM.
As to `NC(=S)c1cn(C2OC(CO)C(O)C2O)c2ncnc(N)c12` (stereo not drawn), in the assay on MDA-MB-468 breast, the GI50 was 0.0589 µM and the TGI worked out at 0.252 µM.
For `CCN(Cc1cccc(C)c1)c1ccc(CO)c(Cl)c1` the same measures were 0.0362 µM and 0.134 µM.
For `CCN(CC)CCn1nc2c3c(cccc3c1=O)-c1ccccc1-2` the same measures were 2.22 µM and 8.43 µM.
The like results for `O=C(N/N=C\c1cc(Br)cc(Br)c1O)N/N=C/c1cc(Br)cc(Br)c1O` were, in that order, 3.13 µM and 8.85 µM.
`CCOC(=O)Nc1ccc2nc(Sc3ccc(Cl)cc3)sc2c1`: in the assay with MDA-MB-468 breast, the GI50 is 0.719 µM and the TGI stood at 3.67 µM.

The values are drawn from PubChem BioAssay (NCI).
